The text below walks through data of PMC10937419, “Exploring pyrrolidinyl-spirooxindole natural products as promising platforms for the synthesis of novel spirooxindoles as EGFR/CDK2 inhibitors for halting breast cancer cells” (Frontiers in Chemistry, 2024).

Where two headings read alike, the source gives them in different places.

What is called IC50 is the concentration that gives 50% inhibition. For orientation: inhibition means the percentage by which the read-out fell short of the control.

The subject of one experiment is MDA-MB-231 cells. Put plainly: MTT cytotoxicity assay, MDA-MB-231 breast cancer cells. The class given is cell-based. The protocol:
(§1) All cells were incubated at 37 °C in 5% carbon dioxide atmosphere (NuAire). Cells were plated at a density of 5x10^4 cells in triplicates in a plate of 96 wells. On the second day, cells were treated with the compounds with concentrations of (0.01, 0.1, 1, 10, and 100 µM). Cell viability was assessed using the MTT assay [6].
For orientation: Tetrazolium assays rely on reduction of a dye to a coloured formazan, in cell work by metabolically active cells.

The next experiment concerns MCF-7 cells. Briefly: MTT cytotoxicity assay, MCF-7 breast cancer cells. The settings on record: Homo sapiens. The class given is cell-based. The protocol: as §1
For another experiment, the target named is T1, CDK-2 kinase (Homo sapiens, UniProt P24941).
T1 construct: purchased not clearly printed (Promega, USA is printed after 'Kinase-Glo Plus'; #79599 is a BPS Bioscience number to my knowledge) 79599
Put plainly: CDK-2 kinase inhibition assay (Kinase-Glo Plus). Type of experiment: biochemical. The note with it: for CDK-2 kinase activity remaining (% of control): signal relative to control. As to the method:
(§2) Inhibitory activities of 5g, 5l, and 5n were tested against EGFR and CDK-2.
(§3) Plus, Promega, USA) inhibition assay.

For the next experiment, the system named is WISH cells. Briefly: MTT cytotoxicity (safety) assay, normal WISH cells. The settings on record: mean ± SD of three independent trials. The class given is cell-based. The protocol: The cytotoxicity of the synthesized compounds was tested using the MTT assay on breast cancer cells (MCF-7 and MDA-MB-231).
The methods for the Cytotoxic activity ([Mosmann, 1983]; [Nafie et al., 2020a]); EGFR/CDK-2 enzyme inhibition ([Nafie et al., 2022a]); Flow cytometry using Annexin V/PI staining; Gene expression analysis using RT-PCR ([Nafie et al., 2022b]); are amended in the Supplementary Material S1.
Both breast cancer; MCF-7 and MDA-MB-231 and normal (WISH) cells were purchased from the National Research Institute, Egypt, and maintained in RPMI-1640 medium L-Glutamine (Lonza Verviers SPRL, Belgium, cat#12-604F). All cells were incubated at 37 °C in 5% carbon dioxide atmosphere (NuAire). Cells were plated at a density of 5x10^4 cells in triplicates in a plate of 96 wells. On the second day, cells were treated with the compounds with concentrations of (0.01, 0.1, 1, 10, and 100 µM). Cell viability was assessed using the MTT assay [6].

A further experiment deals with T2, EGFR kinase (Homo sapiens, UniProt P00533).
T2 construct: purchased BPS Bioscience Corporation 40321
Briefly: EGFR kinase inhibition assay. Type of experiment: biochemical. The note with it: for % remaining EGFR kinase activity (relative to control): signal relative to control. As to the method: as §2, §3

Setting [1] is: Homo sapiens, MDA-MB-231, MTT assay, mean ± SD of three independent trials, read-out: IC50 ± SD, MDA-MB-231.
[2] abbreviates: MCF7, MTT assay, mean ± SD of three independent trials, read-out: IC50 ± SD, MCF-7.
The mark [3] stands for this setting: average of three independent replicates.

T2 sequence (P00533 25-1210): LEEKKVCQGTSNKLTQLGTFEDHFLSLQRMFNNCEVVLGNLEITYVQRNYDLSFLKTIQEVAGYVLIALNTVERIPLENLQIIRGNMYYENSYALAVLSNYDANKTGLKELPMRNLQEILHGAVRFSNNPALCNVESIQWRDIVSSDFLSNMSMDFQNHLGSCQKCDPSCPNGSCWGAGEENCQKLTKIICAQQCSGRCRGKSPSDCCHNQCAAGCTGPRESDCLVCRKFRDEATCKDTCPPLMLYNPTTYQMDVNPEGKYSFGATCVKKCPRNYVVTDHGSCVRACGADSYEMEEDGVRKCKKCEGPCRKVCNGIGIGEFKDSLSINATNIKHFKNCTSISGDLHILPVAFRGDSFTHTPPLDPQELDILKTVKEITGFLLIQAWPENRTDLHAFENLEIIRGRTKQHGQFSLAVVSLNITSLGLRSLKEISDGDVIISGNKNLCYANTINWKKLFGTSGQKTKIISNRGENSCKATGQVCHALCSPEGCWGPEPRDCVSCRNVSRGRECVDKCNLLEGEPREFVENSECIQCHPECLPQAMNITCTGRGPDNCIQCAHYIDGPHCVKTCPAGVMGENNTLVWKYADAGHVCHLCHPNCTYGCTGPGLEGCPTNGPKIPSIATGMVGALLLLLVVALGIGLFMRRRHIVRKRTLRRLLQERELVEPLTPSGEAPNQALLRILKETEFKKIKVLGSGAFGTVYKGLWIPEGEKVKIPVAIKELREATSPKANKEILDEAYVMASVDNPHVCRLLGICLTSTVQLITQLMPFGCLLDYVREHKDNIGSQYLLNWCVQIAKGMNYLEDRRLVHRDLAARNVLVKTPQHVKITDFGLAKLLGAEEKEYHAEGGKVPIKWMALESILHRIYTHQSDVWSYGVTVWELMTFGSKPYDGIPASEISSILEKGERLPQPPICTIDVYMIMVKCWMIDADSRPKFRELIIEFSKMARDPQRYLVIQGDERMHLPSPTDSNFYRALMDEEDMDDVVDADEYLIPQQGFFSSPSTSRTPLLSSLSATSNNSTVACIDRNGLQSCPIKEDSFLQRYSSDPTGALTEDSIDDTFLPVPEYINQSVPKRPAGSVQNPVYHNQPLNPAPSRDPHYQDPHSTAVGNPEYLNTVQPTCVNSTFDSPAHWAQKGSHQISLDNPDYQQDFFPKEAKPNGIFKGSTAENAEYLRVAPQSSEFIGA

For `COC(=O)CNC(=O)CN1C(=O)S[C@@]2(C1=O)[C@@H](c1ccc(Cl)cc1)[C@H]1CSCN1[C@@]21C(=O)Nc2ccc(Cl)cc21` [Compound 5a, Methyl (2-((3S,6′S,7′S,7a′S)-5-chloro-7'-(4-chlorophenyl)-2,2″,4″-trioxo-7′,7a′-dihydro-1′H,3′H-dispiro [indoline-3,5′-pyrrolo [1,2-c]thiazole-6′,5″-thiazolidin]-3″-yl)acetyl)glycinate], the IC50 in the experiment on MDA-MB-231 cells (setting [1]) turned out to be 29.5 ± 1.3 µM; in the experiment with MCF-7 cells (setting [2]), 5.87 ± 0.5 µM.

Turning to `COC(=O)CNC(=O)CN1C(=O)S[C@@]2(C1=O)[C@@H](c1ccc(Cl)cc1)[C@H]1CSCN1[C@@]21C(=O)Nc2cc(Cl)ccc21` [Compound 5b, Methyl (2-((3S,6′S,7′S,7a′S)-6-chloro-7'-(4-chlorophenyl)-2,2″,4″-trioxo-7′,7a′-dihydro-1′H,3′H-dispiro [indoline-3,5′-pyrrolo [1,2-c]thiazole-6′,5″-thiazolidin]-3″-yl)acetyl)glycinate], the IC50 came out at 32.5 ± 0.42 µM in the experiment on MDA-MB-231 cells (setting [1]) and 7.8 ± 0.32 µM in the experiment on MCF-7 cells (setting [2]).

Consider `O=C(O)CN1C(=O)S[C@@]2(C1=O)[C@@H](c1ccc(Cl)cc1)[C@H]1CSCN1[C@@]21C(=O)Nc2cc(Cl)ccc21` [Compound 5c, 2-((3S,6′S,7′S,7a′S)-6-chloro-7'-(4-chlorophenyl)-2,2″,4″-trioxo-7′,7a′-dihydro-1′H,3′H-dispiro [indoline-3,5′-pyrrolo [1,2-c]thiazole-6′,5″-thiazolidin]-3″-yl)acetic acid], for which the IC50 in the experiment with MDA-MB-231 cells (setting [1]) worked out at 24.2 ± 1.1 µM; in the experiment on MCF-7 cells (setting [2]), 15.8 ± 0.4 µM.

With `O=C(O)CN1C(=O)S[C@@]2(C1=O)[C@@H](c1ccc(Cl)cc1)[C@H]1CSCN1[C@@]21C(=O)Nc2ccc(F)cc21` [Compound 5d, 2-((3S,6′S,7′S,7a′S)-7'-(4-Chlorophenyl)-5-fluoro-2,2″,4″-trioxo-7′,7a′-dihydro-1′H,3′H-dispiro [indoline-3,5′-pyrrolo [1,2-c]thiazole-6′,5″-thiazolidin]-3″-yl)acetic acid], the IC50 in the experiment with MDA-MB-231 cells (setting [1]) turned out to be 9.8 ± 0.35 µM; in the experiment with MCF-7 cells (setting [2]) it was 19.4 ± 0.4 µM.

In the case of `Cc1ccc2c(c1)[C@@]1(C(=O)N2)N2CSC[C@@H]2[C@H](c2ccc(Cl)cc2)[C@]12SC(=O)N(CC(=O)O)C2=O` [Compound 5e, 2-((3S,6′S,7′S,7a′S)-7'-(4-Chlorophenyl)-5-methyl-2,2″,4″-trioxo-7′,7a′-dihydro-1′H,3′H-dispiro [indoline-3,5′-pyrrolo [1,2-c]thiazole-6′,5″-thiazolidin]-3″-yl)acetic acid], the IC50 with MDA-MB-231 cells (setting [1]) came to 5.4 ± 0.6 µM; with MCF-7 cells (setting [2]), 9.8 ± 0.7 µM.

In the case of `O=C(O)CN1C(=O)S[C@@]2(C1=O)[C@@H](c1ccc(Cl)cc1)[C@H]1CSCN1[C@@]21C(=O)Nc2ccc([N+](=O)[O-])cc21` [Compound 5f, 2-((3S,6′S,7′S,7a′S)-7'-(4-Chlorophenyl)-5-nitro-2,2″,4″-trioxo-7′,7a′-dihydro-1′H,3′H-dispiro [indoline-3,5′-pyrrolo [1,2-c]thiazole-6′,5″-thiazolidin]-3″-yl)acetic acid], the values for the IC50 in the experiment with MDA-MB-231 cells (setting [1]) and in the experiment on MCF-7 cells (setting [2]) were 35.5 ± 1.1 µM and 18.5 ± 0.6 µM, respectively.

Consider `O=C(CN1C(=O)S[C@@]2(C1=O)[C@@H](c1ccc(Cl)cc1)[C@H]1CSCN1[C@@]21C(=O)Nc2ccc([N+](=O)[O-])cc21)NCCN1CCOCC1` [Compound 5i], for which the results for the IC50 with MDA-MB-231 cells (setting [1]) and in the experiment with MCF-7 cells (setting [2]) were 35.3 ± 1.2 µM and 28.7 ± 0.8 µM, respectively.

On to `O=C(CN1C(=O)S[C@@]2(C1=O)[C@@H](c1ccc(Cl)cc1)[C@H]1CSCN1[C@@]21C(=O)Nc2ccc(F)cc21)NCCN1CCOCC1` [Compound 5j], for which the values for the IC50 in the experiment with MDA-MB-231 cells (setting [1]) and with MCF-7 cells (setting [2]) were 21.4 ± 0.8 µM and 23.4 ± 1.2 µM, respectively.

Consider `O=C(CN1C(=O)S[C@@]2(C1=O)[C@@H](c1ccc(Cl)cc1)[C@H]1CSCN1[C@@]21C(=O)Nc2ccc(Cl)cc21)NCCN1CCOCC1` [Compound 5k], for which the figures for the IC50 with MDA-MB-231 cells (setting [1]) and with MCF-7 cells (setting [2]) were 19.5 ± 0.7 µM and 21.4 ± 0.9 µM, respectively.

Take `COC(=O)[C@@H](NC(=O)CN1C(=O)S[C@@]2(C1=O)[C@@H](c1ccc(Br)cc1)[C@H]1CSCN1[C@@]21C(=O)Nc2cc(Cl)ccc21)C(C)C` [Compound 5l, Methyl (2-((3S,6′S,7′S,7a′S)-7'-(4-bromophenyl)-6-chloro-2,2″,4″-trioxo-7′,7a′-dihydro-1′H,3′H-dispiro [indoline-3,5′-pyrrolo [1,2-c]thiazole-6′,5″-thiazolidin]-3″-yl)acetyl)valinate]: the “CDK-2 kinase activity remaining (% of control)” value worked out at 90.99% on CDK-2 kinase (0.01 µM, ΔT=30 min); 76% on CDK-2 kinase (0.1 µM, ΔT=30 min); 60.44% on CDK-2 kinase (1 µM, ΔT=30 min); 56.06% at CDK-2 kinase (2.5 µM, ΔT=30 min); 36.07% on CDK-2 kinase (5 µM, ΔT=30 min); 29.31% on CDK-2 kinase (10 µM, ΔT=30 min). The inhibition at 0.01 µM came out at 9.01% on CDK-2 kinase (0.01 µM, ΔT=30 min, read-out: % of inhibition, CDK2) and 30.3% on EGFR kinase (0.01 µM, ΔT=30 min). Moreover, the inhibition at 0.1 µM on CDK-2 kinase (0.1 µM, ΔT=30 min, read-out: % of inhibition, CDK2) is 24%; at EGFR kinase (0.1 µM, ΔT=30 min), 39.9%. Moreover, the inhibition at 1 µM at CDK-2 kinase (1 µM, ΔT=30 min, read-out: % of inhibition, CDK2) stood at 39.6%; at EGFR kinase (1 µM, ΔT=30 min), 51.1%. Besides, the inhibition at 2.5 µM on CDK-2 kinase (2.5 µM, ΔT=30 min, read-out: % of inhibition, CDK2) was found to be 43.9%; against EGFR kinase (2.5 µM, ΔT=30 min), 58.7%. The inhibition at 5 µM on CDK-2 kinase (5 µM, ΔT=30 min, read-out: % of inhibition, CDK2) worked out at 63.9%; at EGFR kinase (5 µM, ΔT=30 min), 80.1%. The inhibition at 10 µM on CDK-2 kinase (10 µM, ΔT=30 min, read-out: % of inhibition, CDK2) is 89.4%; against EGFR kinase (10 µM, ΔT=30 min), 89.9%. Also, the IC50 on CDK-2 kinase (setting [3]) came out at 0.345 µM; in the experiment on WISH cells, 43.5 ± 2 µM; with MDA-MB-231 cells (setting [1]), 8.45 µM; in the experiment with MDA-MB-231 cells (MTT assay, mean ± SD of three independent trials, listed as C00012, read-out: IC50 ± SD, MDA-MB-231), 8.43 ± 0.6 µM; at EGFR kinase (setting [3]), 0.067 ± 0.001 µM; with MCF-7 cells (setting [2]) it was 3.4 ± 0.5 µM. Moreover, the “% remaining EGFR kinase activity (relative to control)” value at EGFR kinase (0.01 µM, ΔT=30 min) is 69.72%; at EGFR kinase (0.1 µM, ΔT=30 min) it was 60.14%; at EGFR kinase (1 µM, ΔT=30 min) it was 48.86%; at EGFR kinase (2.5 µM, ΔT=30 min), 41.25%; at EGFR kinase (5 µM, ΔT=30 min) it was 19.88%; at EGFR kinase (10 µM, ΔT=30 min), 11.75%. In addition, the “% Of EGFR inhibition” value at EGFR kinase (concentration not given in Table 2, matches 10 µM in the 4th table) is 89.8 ± 2.8%.

With `COC(=O)[C@@H](NC(=O)CN1C(=O)S[C@@]2(C1=O)[C@@H](c1ccc(Br)cc1)[C@H]1CSCN1[C@@]21C(=O)Nc2ccc(F)cc21)C(C)C` [Compound 5m, Methyl (2-((3S,6′S,7′S,7a′S)-7'-(4-bromophenyl)-5-fluoro-2,2″,4″-trioxo-7′,7a′-dihydro-1′H,3′H-dispiro [indoline-3,5′-pyrrolo [1,2-c]thiazole-6′,5″-thiazolidin]-3″-yl)acetyl)valinate], the values for the IC50 in the experiment with MDA-MB-231 cells (setting [1]) and in the experiment with MCF-7 cells (setting [2]) were 6.3 ± 0.3 µM and 4.5 ± 0.4 µM, respectively.

`COC(=O)CCCNC(=O)CN1C(=O)S[C@@]2(C1=O)[C@@H](c1ccc(Br)cc1)[C@H]1CSCN1[C@@]21C(=O)Nc2cc(Cl)ccc21` [Compound 5o, Methyl 4-(2-((3S,6′S,7′S,7a′S)-7'-(4-bromophenyl)-6-chloro-2,2″,4″-trioxo-7′,7a′-dihydro-1′H,3′H-dispiro [indoline-3,5′-pyrrolo [1,2-c]thiazole-6′,5″-thiazolidin]-3″-yl)acetamido)butanoate]: the IC50 is 4.32 ± 0.5 µM in the experiment with MDA-MB-231 cells (setting [1]) and 4.12 ± 0.4 µM in the experiment with MCF-7 cells (setting [2]).

`C#Cc1cccc(Nc2ncnc3cc(OCCOC)c(OCCOC)cc23)c1` [Erlotinib, reference compound]: the IC50 in the experiment with MDA-MB-231 cells (Homo sapiens, MDA-MB-231, read-out: IC50 ± SD, MDA-MB-231) was found to be 3.25 ± 0.5 µM; in the experiment on MCF-7 cells (MCF7, read-out: IC50 ± SD, MCF-7) it was 2.14 ± 0.3 µM.
